Target: Cannabinoid receptor 1 (Homo sapiens, UniProt P21554)
Sequence (P21554 whole entry): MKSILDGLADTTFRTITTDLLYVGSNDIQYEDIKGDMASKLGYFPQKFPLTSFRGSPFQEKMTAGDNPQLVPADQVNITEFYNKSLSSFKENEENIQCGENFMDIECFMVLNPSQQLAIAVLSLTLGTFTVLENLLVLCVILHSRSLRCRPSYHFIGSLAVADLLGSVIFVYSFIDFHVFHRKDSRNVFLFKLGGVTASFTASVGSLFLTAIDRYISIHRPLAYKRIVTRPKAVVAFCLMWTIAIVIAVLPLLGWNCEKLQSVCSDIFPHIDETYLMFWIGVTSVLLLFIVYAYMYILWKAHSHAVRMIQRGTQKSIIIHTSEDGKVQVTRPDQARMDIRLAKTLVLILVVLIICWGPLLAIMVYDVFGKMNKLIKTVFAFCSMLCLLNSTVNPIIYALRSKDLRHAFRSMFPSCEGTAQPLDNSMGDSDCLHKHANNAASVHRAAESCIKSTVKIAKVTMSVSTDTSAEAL

For `CC(=O)N[C@H]1CCN(c2nc(O[C@@H](C)C(F)(F)F)nc3c2nnn3Cc2ccccc2C(F)(F)F)C1` [US9593123, Example 81], which EC50 is on record?
The EC50 was over 10 µM.
